Measured values published in patent US20020032178A1 (priority 2000, published 2002).

melting point: 134 to 137 °C
Compound: COC(=O)c1cccc(/C=N/NC(=O)c2ccc(C)cc2)c1O [I-2]
